Measured values as given in US20070265301A1, “Dpp-IV Inhibitors” (priority 2004, published 2007).
Where a name gives a salt, the structure may show the parent alone.

The compounds below were run against T1, DPP-IV (Homo sapiens, UniProt P27487) (assay: Continuous fluorimetric assay of DPP-IV peptidase activity (Gly-Pro-AMC cleavage)). Settings: 50 pM DPP-IV, 16 μM Gly-Pro-AMC, pH 7.4, 25° C., 1% DMSO; values grouped in 3 classes; read-out: IC50 for inhibition of DPP-IV peptidase activity.
T1 construct: Soluble human DPP-IV lacking the transmembrane anchor (Gly31-Pro766); Pre-Pro-alpha-mating factor leader (secretion signal) (N, cleaved yes); made in house
T1 sequence (P27487 31-766): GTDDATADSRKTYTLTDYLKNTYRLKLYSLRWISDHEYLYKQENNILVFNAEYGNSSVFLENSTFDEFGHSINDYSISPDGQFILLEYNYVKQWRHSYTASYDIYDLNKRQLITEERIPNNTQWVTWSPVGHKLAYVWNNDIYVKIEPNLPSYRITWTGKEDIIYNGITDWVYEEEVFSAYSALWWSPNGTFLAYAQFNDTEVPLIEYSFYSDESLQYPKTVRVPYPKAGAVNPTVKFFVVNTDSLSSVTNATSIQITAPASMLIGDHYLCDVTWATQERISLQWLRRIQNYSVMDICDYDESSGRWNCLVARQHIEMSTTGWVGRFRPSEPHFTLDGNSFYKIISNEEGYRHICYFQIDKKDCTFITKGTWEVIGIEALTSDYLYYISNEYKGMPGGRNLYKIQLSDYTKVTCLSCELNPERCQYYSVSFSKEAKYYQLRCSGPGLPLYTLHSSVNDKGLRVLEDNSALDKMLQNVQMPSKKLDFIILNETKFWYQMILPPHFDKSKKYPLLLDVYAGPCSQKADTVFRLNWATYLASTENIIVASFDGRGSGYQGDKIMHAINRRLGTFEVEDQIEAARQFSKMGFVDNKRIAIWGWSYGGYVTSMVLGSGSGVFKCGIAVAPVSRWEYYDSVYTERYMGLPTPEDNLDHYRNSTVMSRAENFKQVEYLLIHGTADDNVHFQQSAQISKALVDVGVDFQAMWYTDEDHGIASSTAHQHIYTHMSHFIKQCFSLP
Format: biochemical
Protocol: Inhibition of DPP-IV peptidase activity was monitored with a continuous fluorimetric assay. This assay is based on the cleavage of the substrate Gly-Pro-AMC (Bachem) by DPP-IV, releasing free AMC. The assay is carried out in 96-well microtiterplates. In a total volume of 100 μL, compounds are preincubated with 50 pM DPP-IV employing a buffer containing 10 mM Hepes, 150 mM NaCl, 0.005% Tween 20 (pH 7.4). The reaction is started by the addition of 16 μM substrate and the fluorescence of liberated AMC is detected for 10 minutes at 25° C. with a fluorescence reader (BMG-Fluostar; BMG-Technologies) using an excitation wavelength of 370 nm and an emission wavelength of 450 nm. The final concentration of DMSO is 1%. The inhibitory potential of the compounds were determined.
Soluble human DPP-IV lacking the transmembrane anchor (Gly31-Pro766) was expressed in a recombinant YEAST-strain as Pre-Pro-alpha-mating fusion. The secreted product (rhuDPP-IV-Gly31-Pro766) was purified from fermentation broth (>90% purity).
In the table are listed the IC50 values for inhibition of DPP-IV peptidase activity determined in assays as described above.

IC50	Structure (SMILES)
≤ 100 nM	N[C@@H](CC(=O)N1Cc2ccccc2C[C@H]1CNS(=O)(=O)C1CC1)Cc1cccc(Cl)c1 [Example 10, Cyclopropanesulfonic acid {2-[(3R)-3-amino-4-(3-chloro-phenyl)-butyryl]-1,2,3,4-tetrahydro-isoquinolin-(3S)-3-ylmethyl]-amide, trifluoroacetate salt]
101 to 1000 nM	N[C@@H](CC(=O)N1Cc2ccccc2C[C@H]1CNC(=O)C1CC1)Cc1ccccc1F [Example 1, Cyclopropanecarboxylic acid {2-[(3R)-3-amino-4-(2-fluoro-phenyl)-butyryl]-1,2,3,4-tetrahydro-isoquinolin-(3S)-3-ylmethyl]-amide, trifluoroacetate salt]
≤ 100 nM	N[C@@H](CC(=O)N1Cc2ccccc2C[C@H]1CNS(=O)(=O)C1CC1)Cc1ccccc1F [Example 9, Cyclopropanesulfonic acid {2-[(3R)-3-amino-4-(2-fluoro-phenyl)-butyryl]-1,2,3,4-tetrahydro-isoquinolin-(3S)-3-ylmethyl-amide, trifluoroacetate salt]
≤ 100 nM	CS(=O)(=O)NC[C@@H]1Cc2ccccc2CN1C(=O)C[C@H](N)Cc1ccccc1F [Example 8, N-{2-[(3R)-3-Amino-4-[2-fluoro-phenyl)-butyryl]-1,2,3,4-tetrahydro-isoquinolin-(3S)-3-ylmethyl}-methanesulfonamide, trifluoroacetate salt]
≤ 100 nM	NC(CC(=O)N1Cc2ccccc2C[C@H]1CNS(=O)(=O)C1CC1)Cc1cc(F)ccc1F (mixture of isomers) [Example 11, Cyclopropanesulfonic acid {2-[(3-amino-4-(2,5-difluoro-phenyl)-butyryl]-1,2,3,4-tetrahydro-isoquinolin-(3S)-3-ylmethyl}-amide, trifluoroacetate salt]

Further lines, the compound ahead of its results:

Structure (SMILES)	IC50
N[C@@H](CC(=O)N1Cc2ccccc2CC1COCc1ccccc1)Cc1ccccc1F (stereo partly drawn) [Example 14, (3R)-3-Amino-1-benzyloxymethyl-3,4-dihydro-1H-isoquinolin-2-yl)-4-(2-fluorophenyl)-butan-1-one, trifluoroacetate salt]	≤ 100 nM
N[C@@H](CC(=O)N1Cc2ccccc2C[C@H]1CNC(=O)c1ccccc1)Cc1ccccc1F [Example 4, N-{2-[(3R)-3-Amino-4-(2-fluoro-phenyl)-butyryl}-1,2,3,4-tetrahydro-isoquinolin-(3S)-3-ylmethyl}-benzamide, trifluoroacetate salt]	≤ 100 nM
CN(C)C[C@@H]1Cc2ccccc2CN1C(=O)C[C@H](N)Cc1ccccc1F [Example 7, (3R)-3-Amino-1-(3S)-3-(3-dimethylaminomethyl-3,4-dihydro-1H-isoquinolin-2-yl)-4-(2-fluorophenyl)-butan-1-one, trifluoroacetate salt]	1000 to 2000 nM
N[C@@H](CC(=O)N1Cc2ccccc2C[C@H]1CNC(=O)CO)Cc1ccccc1F [Example 3, N-{2-[(3R)-3-Amino-4-(2-fluoro-phenyl)-butyryl-1,2,3,4-tetrahydroisoquinolin-(3S)-3-ylmethyl}-2-hydroxy-acetamide, trifluoroacetate salt]	101 to 1000 nM
Cc1cc(C(=O)NC[C@@H]2Cc3ccccc3CN2C(=O)C[C@H](N)Cc2ccccc2F)no1 [Example 5, 5-Methyl-isoxazole-3-carboxylic acid-{2-[(3R)-3-amino-4-(2-fluoro-phenyl)-butyryl]-1,2,3,4-tetrahydro-isoquinolin-(3S)-3-ylmethyl}-amide, trifluoroacetate salt]	≤ 100 nM
Nc1nc(C(=O)NC[C@@H]2Cc3ccccc3CN2C(=O)C[C@H](N)Cc2ccccc2F)n[nH]1 [Example 6, 5-Amino-1H-[1,2,4]triazole-3-carboxylic acid-{2-[(3R)-3-amino-4-(2-fluoro-phenyl)-butyryl]-1,2,3,4-tetrahydro-isoquinolin-(3S)-3-ylmethyl-amide, trifluoroacetate salt]	≤ 100 nM
N[C@@H](CC(=O)N1Cc2ccccc2C[C@H]1COc1cccc(F)c1)Cc1ccccc1F [Example 12, trifluoroacetate salt]	≤ 100 nM
N[C@@H](CC(=O)N1c2ccccc2CC1COCc1ccccc1)Cc1ccccc1F (mixture of isomers) [Example 13, (3R)-3-Amino-1-benzyloxymethyl-2,3-dihydro-indo-1-yl)-4-(2-fluorophenyl)-butan-1-one trifluoroacetate salt]	1000 to 2000 nM
N[C@@H](CC(=O)N1Cc2ccccc2C[C@H]1CNC(=O)C1(O)CC1)Cc1ccccc1F [Example 2, 1-Hydroxy-cyclopropanecarboxylic acid {2-[(3R)-3-amino-4-(2-fluoro-phenyl)-butyryl]-1,2,3,4-tetrahydro-isoquinolin-(3S)-3-ylmethyl}-amide, trifluoroacetate salt]	101 to 1000 nM
